# Values of other authors in patent US20130150323A1, “USE OF ORAL HEPARIN PREPARATIONS TO TREAT URINARY TRACT DISEASES AND CONDITIONS” (Urigen Pharmaceuticals, Inc, priority 2010, published 2013).
# Where two headings read alike, the source gives them in different places.
# Columns and labels:
# [1] = test system: IC patients; conditions: intravesical instillations
# [2] = test system: cancer patients
# [3] = test system: IC patients; conditions: intravesical
# [4] = test system: bladder mucus layer of normal human volunteers; conditions: intravesically administered; 0.4 M potassium solution
# [5] = test system: interstitial cystitis patients; conditions: oral, double blind studies, 16% on placebo
# [6] = oral
compound,measurement,setting,value
"C[S+](C)[O-] [DMSO, dimethylsulfoxide]",IC patients treated with benefit,[1],~50%
"O=S(=O)(O)CCS [Mesnex, mesna]",frequency of adverse events (all AEs),[2]; IV,85%
same,frequency of adverse events (all AEs),[2]; oral,89%
heparin,patients treated in whom effective,[3],approximately 50%
same,"effect on protamine chemical injury of mucus layer (potassium absorption, urgency and pain)",[4],reversed
pentosanpolysulfate,"good response, patients on active drug",[5],34%
same,availability of this drug orally,[6],2-3%
